According to US7030087B2, “Synthetic approach to designed chemical structures” (priority 1996, dated 2006):

Columns and labels:
P. aeruginosa = test: Bactericidal activity assay; assay type: cell-based, Pseudomonas aeruginosa type 1; settings: for Bactericidal Activity, % killing: 1.2 × 10^−7 M Peptide, 5 × 105 P. aeruginosa; for Bactericidal Activity, % killing at the effective dose: at the Ed for the same peptide; for Bactericidal Activity, Ed, Effective M dose: dose at which the % in brackets was found
Text: Bacteria: P. aeruginosa type 1 is a clinical isolate maintained in the laboratory. The isolate remains a smooth strain and was serotyped by the scheme of Homma. The Pseudomonas strain was maintained by monthly transfer on blood agar plates.
The peptides can be assayed for bactericidal activity against a variety of organisms such as Pseudomonas aeruginosa type 1, P. cepacia ATCC 25608, E. coli B, and Staphylococcus aureus 502A by standard methods.
Pseudomonas aeruginosa type 1 is a clinical isolate. The isolate remains a smooth strain and was serotyped by the scheme of Homma (Jpn. J. Exp. Med. 46:329, 1976). A rough strain, E. coli B and S. aureus 502A were obtained from Paul Quie, University of Minnesota (Minneapolis, Minn.). The characteristics of the S. aureus strain have been described by Shinefield et al. (Amer. J. Dis. Chil. 105:646, 1963). Pseudomonas cepacia ATCC 25608 can be purchased from the ATCC. S. aureus and E. coli were maintained on nutrient agar plates and the Pseudomonas strains were maintained on blood agar plates.
Pyrogen-free solutions were used throughout the assay and all methods that follow. Log phase bacteria were prepared from a culture in brain heart infusion broth (Hovde et al. Infect. Immun. 54:142–148, 1986) and bacteria were washed and resuspended in saline with adjustment to an optical density at 650 nm to provide a yield of about 3×10^8 CFU/ml. Bacteria were diluted 1:10 in 0.08M citrate phosphate buffer, pH 5.6 or pH 7.0, for use in the assay. S. aureus rapidly lost viability in the pH 5.6 buffer and was studied only at pH 7.0. Bactericidal activity was determined by dose response over peptide concentrations ranging from about […] to about 4.1×10^−9M. Bactericidal activity was determined by dose response, preferably determining LD50 by linear regression.

[1] = tested on: endotoxin from E. coli 055:B5; test: Limulus amoebocyte lysate assay (E-TOXATE), endotoxin neutralization; assay type: biochemical; settings: for Endotoxin Neutralization, % neutralization: 5.0 × 10^−6 M Peptide; for Endotoxin Neutralization, % neutralization / Endotoxin Neutralizing Activity, % neutralization: 0.02 U (0.2 pg) endotoxin from E. coli 055:B5; for Endotoxin Neutralizing Activity, % neutralization: 5.0 × 10^−5 M peptide
Protocol: The peptides were tested for their ability to neutralize endotoxin. Quantitative endotoxin activities for these peptides were measured by Limulus amoebocyte lysate assay.
Limulus amoebocyte lysate assay: The ability of synthetic peptides to neutralize endotoxin was detected with the E-TOXATE kit manufactured by Sigma Chemicals (St. Louis, Mo.). […] Peptide or B/PI was incubated with LPS at room temperature for 5 min in 100 ul of a 1:2 dilution of pyrogen-free saline (pH 6.4). The reaction was started by addition of 100 ul of amoebocyte lysate and the final volume was 200 ul. Assuming a 10,000 molecular weight for LPS, the approximate molar ration of B/PI:LPS at neutralization was 3000 to 1.
The peptides were tested according to the method provided above. […] BG38L was used as a positive control in these experiments.

[2] = Table 4, dose at which the % in brackets was found

Molecule	Bactericidal Activity, % killing (P. aeruginosa)	Bactericidal Activity, % killing at the effective dose (P. aeruginosa)	Bactericidal Activity, Ed, Effective M dose (P. aeruginosa) [nM]	Endotoxin Neutralization, % neutralization ([1]; Table 4)	Endotoxin Neutralization, % at the effective dose ([1]; Table 4, at the Ed) [%]	Endotoxin Neutralization, Ed, Effective M dose [1, 2] [µM]	Endotoxin Neutralizing Activity, % neutralization ([1]; Table 3)	Endotoxin Neutralization, % at the effective dose ([1]; Table 3, at the ED printed in the same cell) [%]	Endotoxin neutralization, ED, Effective M dose ([1]; Table 3, dose at which the % in brackets was found) [µM]	bactericidal activity (in words) (P. aeruginosa)	approximate molar ratio B/PI:LPS at neutralization ([1]; assuming a 10,000 molecular weight for LPS)
ANIKLSVEFKLFKRHLKWKIIFKLNDGREFSLD [βpep-13]	0%	(19.8), n = 3%	960	100%	22.5	1.2					
ANIKLSVEMKFFKRHLKWKIIVKLNDGRELSLD [βpep-12]	0%	(49.1), n = 5%	960	100%	29.5	1.2					
ANIKLSVEMKLFCRHLKCKIIVKLNDGRELSLD [βpep-10]	0%	(20.9), n = 7%	960	100%	25.2	1.2					
ANIKLSVEMKLFCY^DWKVCKHVKLNDGRELSLD [βpep-11]	0%	(48.0), n = 4%	960	100%	29.5	1.2	100%	29.5	1.2		
ANIKLSVKWKAQKRFLKMSIIVKLNDGRELSLD [βpep-9]	0%	(47.4), n = 11%	960	100%	32.3	1.2					
ANIKLSVKWKAQKRFLKMSINVDLSDGRELSLD [βpep-2]	18.8, n = 6%			55.3, n = 5%							
BG38: BG38L corresponds to amino acids 86–108 of B/PI; positive control (KISGKWKAQKRFLKMSGNFDLSI; UniProt P17213 117-139, looked up, fragment) [reference compound]							34.4, n = 5%				
HIKELQVKMKAQKRFLKWSIIVKLNDGRELSLD [βpep-7]	39.1, n = 2%			77.7, n = 2%						greatest bactericidal activity	
HIKELQVRWRAQKRFLRMSIIVKLNDGRELSLD [βpep-6]	8.2, n = 2%			79.3, n = 3%							
KFIVTLRVIKAGPHSPTAQIIVELKNGRKLSLD [βpep-5]	7.4, n = 7%			70.3, n = 3%			70.3, n = 3%				
SIQDLKVSMKLFRKQAKWKIIVKLNDGRELSLD [βpep-18]	18.8, n = 1%			100%	30.2	1.2					
SIQDLNLSMKLFRKQAKWKIIVKLNDGRELSLD [βpep-22]	35.5, n = 3%			100%	21.3	1.2				greatest bactericidal activity	
SIQDLNVSLKLFRKQAKWKIIVKLNDGRELSLD [βpep-21]	13.0, n = 1%			100%	40.3	1.2					
SIQDLNVSMKLFRKQAKWKIILKLNDGRELSLD [βpep-15]	0%	23.9%	960	48.1 n = 1%							
SIQDLNVSMKLFRKQAKWKIIVKLNDGRELSLD [βpep-1]	32.0, n = 3%			42.8, n = 3%			42.8, n = 3%			greatest bactericidal activity	
SIQDLNVSMKLFRKQAKWKILVKLNDGRELSLD [βpep-17]	0%	40.1%	960	100%	28.9	1.2					
SIQDLNVSMKLFRKQAKWKINVKLNDGRELSLD [βpep-4]	37.6, n = 3%			14.7, n = 3%						greatest bactericidal activity	
SIQDLNVSMXLFRKQAKWKIIVKLNDGRELSLD [βpep-20]	0%	0.0%	480	100%	17.1	1.2					
SIQKLNVSMKLFRKQAKWKIIVKLNDGRELSLD [βpep-19]	62.5, n = 2%			0%	12.4	16				greatest bactericidal activity	
bactericidal/permeability increasing polypeptide (protein, UniProt P17213 32-487, looked up, purified in three column-chromatography steps) Bactericidal …: VNPGVVVRISQKGLDYASQQGTAALQKELKRIKIPDYSDSFKIKHLGKGHYSFYSMDIREFQLPSSQISMVPNVGLKFSISNANIKISGKWKAQKRFLKMSGNFDLSIEGMSISADLKLGSNPTSGKPTITCSSCSSHINSVHVHISKSKVGWLIQLFHKKIESALRNKMNSQVCEKVTNSVSSELQPYFQTLPVMTKIDSVAGINYGLVAPPATTAETLDVQMKGEFYSENHHNPPPFAPPVMEFPAAHDRMVYLGLSDYFFNTAGLVYQEAGVLKMTLRDDMIPKESKFRLTTKFFGTFLPEVAKKFPNMKIQIHVSASTPPHLSVQPTGLTFYPAVDVQAFAVLPNSSLASLFLIGMHTTGSMEVSAESNRLVGELKLDRLLLELKHSNIGPFPVELLQDIMNYIVPILVLPRVNEKLQKGFPLPTPARVQLYNVVLQPHQNFLLFGADVVYK											3000 to 1
